molecular target: T1, enképhalinase (Rattus norvegicus, UniProt P07861); assay: Enkephalinase assay and determination of the effect of inhibitors (hydrolysis of tritiated leucine-enkephalin); assay type: biochemical; conditions: membrane fraction of rat striatum; 20 nanomoles tritiated leucine-enkephalin, 1 mM puromycin, TRIS buffer, 15 min at 25°C; read-out: Inhibition de l'enképhalinase CI 50
T1 construct: L'activité de l'enképhalinase est déterminée dans une fraction membranaire de striatum de rat; from tissue; host or cells: rat striatum, particulate (membrane) fraction
T1 sequence (P07861 1-750): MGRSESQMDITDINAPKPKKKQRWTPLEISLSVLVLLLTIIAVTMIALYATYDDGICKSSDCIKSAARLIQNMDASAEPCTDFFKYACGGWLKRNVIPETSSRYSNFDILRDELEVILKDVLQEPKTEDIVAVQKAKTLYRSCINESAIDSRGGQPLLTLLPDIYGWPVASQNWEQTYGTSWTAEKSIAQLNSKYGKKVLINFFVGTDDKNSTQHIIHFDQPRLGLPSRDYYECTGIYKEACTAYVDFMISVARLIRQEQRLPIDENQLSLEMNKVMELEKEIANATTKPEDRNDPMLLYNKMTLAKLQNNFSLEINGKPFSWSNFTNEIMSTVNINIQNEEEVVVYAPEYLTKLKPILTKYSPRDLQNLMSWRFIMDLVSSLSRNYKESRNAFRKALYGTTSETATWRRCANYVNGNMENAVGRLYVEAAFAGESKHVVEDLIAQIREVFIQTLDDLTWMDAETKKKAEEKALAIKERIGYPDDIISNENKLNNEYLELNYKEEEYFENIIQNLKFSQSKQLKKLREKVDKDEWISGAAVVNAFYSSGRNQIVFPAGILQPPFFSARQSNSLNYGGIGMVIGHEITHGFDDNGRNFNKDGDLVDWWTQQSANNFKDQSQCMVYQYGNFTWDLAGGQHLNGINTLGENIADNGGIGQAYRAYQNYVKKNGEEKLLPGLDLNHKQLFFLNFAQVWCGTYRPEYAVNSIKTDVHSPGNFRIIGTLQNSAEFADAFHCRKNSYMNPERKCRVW
Protocol: 1) Dosage de l'enképhalinase et détermination de l'effet des inhibiteurs.
L'activité de l'enképhalinase est déterminée dans une fraction membranaire de striatum de rat.
Les striatum sont prélevés sur glace et homogénéisés en tampon TRIS 0.05M pH 7,4 (20 fois le volume). Après une première centrifugation à 1000 g, la fraction particulaire est obtenue à la suite de deux centrifugations de 10 minutes à 20 000 g. Le culot est ensuite mis en suspension dans un tampon TRIS et conservé à 4°C. Le dosage des protéines est effectué selon la méthode au bleu de Comassie.
Après une préincubation de 15 minutes à 25°C, une aliquote de protéines est incubée pendant 15 minutes à 25°C en présence de 20 nanomoles de leucine-enképhaline tritiée (sur le premier acide aminé) préalablement purifiée, d'1 mM de puromycine et du produit à tester en tampon TRIS. La réaction d'hydrolyse est stoppée par addition d'acide chlorhydrique 0,2N et l'incubat subit une déprotéinisation par la chaleur (15 minutes à 95°C).
Les métabolites tritiés obtenus par hydrolyse sont séparés de l'enképhaline par chromatographie sur colonne de porapak Q : ils sont élués avec du tampon TRIS tandis que l'enképhaline est retenue sur la colonne et recueillie ensuite en phase éthanolique.
L'activité des différents produits est exprimée en concentrations inhibitrices 50 %.

In order of rising IC50:
1. O=C(NCc1ccncc1)C(CS)Cc1ccccc1 (stereo not drawn) [Exemple 24, Chlorhydrate d'α-(mercaptométhyl) N-/(pyridin-4-yl) méthyl/ benzène propanamide]  80 nM
2. Chlorhydrate d'α-(mercaptométhyl) N-/(pyridin-3-yl) méthyl/ benzène propanamide [Exemple 22]  80 nM
3. O=C(NC1CCCCC1)C(CS)Cc1ccccc1 (stereo not drawn) [Exemple 2, N-cyclohexyl α-(mercaptométhyl) benzène propanamide]  100 nM
4. O=C(NCc1ccccn1)C(CS)Cc1ccccc1 (stereo not drawn) [Exemple 26, Chlorhydrate d'α-(mercaptométhyl) N-/(Pyridin-2-yl) méthyl/benzène propanamide]  100 nM
5. O=C(NCCc1ccccc1)C(CS)Cc1ccccc1 (stereo not drawn) [Exemple 8, α -(mercaptométhyl) N-(2-phényl éthyl) benzène propanamide]  1000 nM
